Reference: publication PMC3265452 (PLoS Neglected Tropical Diseases, 2012)
Where a name gives a salt, the structure may show the parent alone. Read-outs that look alike come from different tables or passages of the source.

Target: AaDOP2 (Aedes aegypti, UniProt H6D5H2)
Assay: AaDOP2 antagonist screen of the LOPAC1280 library (HEK-CRELuc-Aadop2 cells, luminescence)
Type: cell-based
[1] = 10 µM compound, 300 nM dopamine, 2 hr, hit = compound effect <20

Sequence of AaDOP2 (H6D5H2 1-476): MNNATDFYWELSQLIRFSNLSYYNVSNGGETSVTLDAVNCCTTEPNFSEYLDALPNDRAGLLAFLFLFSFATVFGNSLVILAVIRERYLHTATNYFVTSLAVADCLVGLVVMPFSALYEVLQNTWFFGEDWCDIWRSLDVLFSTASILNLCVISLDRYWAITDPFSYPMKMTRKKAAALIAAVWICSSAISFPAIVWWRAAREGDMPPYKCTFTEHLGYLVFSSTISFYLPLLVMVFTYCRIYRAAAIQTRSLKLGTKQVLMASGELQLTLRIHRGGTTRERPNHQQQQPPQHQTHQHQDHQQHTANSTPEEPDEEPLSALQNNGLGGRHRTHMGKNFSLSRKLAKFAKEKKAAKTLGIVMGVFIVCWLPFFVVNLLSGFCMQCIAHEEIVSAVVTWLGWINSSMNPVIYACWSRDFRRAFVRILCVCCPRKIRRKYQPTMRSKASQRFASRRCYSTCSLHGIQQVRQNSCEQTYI

Row | Structure (SMILES) | Compound effect (percent receptor signaling in presence of test compound, relative lux units relative to the SCH23390 control) | other results
1 | CC(N/C(=N\C#N)Nc1ccncc1)C(C)(C)C (centres unmarked) [Compound 1016, Pinacidil] | 89 | 
2 | CC(=O)[C@H]1CC[C@H]2[C@@H]3CC=C4C[C@@H](OS(=O)(=O)[O-])CC[C@]4(C)[C@H]3CC[C@]12C.[Na+] [Compound 1017, Pregnenolone sulfate sodium] | 107 | 
3 | Cc1nc(N=Nc2ccc(S(=O)(=O)O)cc2S(=O)(=O)O)c(COP(=O)(O)O)c(C=O)c1O [Compound 1018, PPADS] |  | Compound effect (percent receptor signaling in presence of test compound, relative lux units relative to the SCH23390 control) [1]: 103%
4 | CCCN1CCO[C@@H]2c3cc(O)ccc3OC[C@H]21.Cl [Compound 1019, S(+)-PD 128,907 hydrochloride] |  | Compound effect (percent receptor signaling in presence of test compound, relative lux units relative to the SCH23390 control) [1]: 89%
5 | NC(=Nc1ccccc1)NC(=O)c1nc(Cl)c(N)nc1N [Compound 1020, Phenamil methanesulfonate] | 46 | 
6 | O=C([O-])CCC(NC(=O)c1ccccc1C(=O)[O-])C(=O)[O-].[Na+].[Na+].[Na+] [Compound 1022, Phthalamoyl-L-glutamic acid trisodium] |  | Compound effect (percent receptor signaling in presence of test compound, relative lux units relative to the SCH23390 control) [1]: 97%
7 | COc1cccc(-c2cc(=O)c3ccccc3o2)c1N [Compound 1023, PD 98,059] | 94 | 
8 | Cc1cccc(C(=O)NCN2CCN(c3ccccc3C#N)CC2)c1.O=C(O)/C=C\C(=O)O [Compound 1025, PD 168,077 maleate] | 91 | 
9 | CN(C)S(=O)(=O)c1ccc2c(c1)/C(=C/c1cc3c([nH]1)CCCC3)C(=O)N2 [Compound 1026, SU 6656] | 65 | 
10 | O=C(O)c1cccnc1C(=O)O [Compound 1027, Quinolinic acid] | 83 | 
11 | O=c1c(O)c(-c2ccc(O)c(O)c2)oc2cc(O)cc(O)c12 [Compound 1028, Quercetin dihydrate] | 34 | 
12 | C=C[C@H]1C[N@@]2CC[C@H]1C[C@@H]2[C@@H](O)c1ccnc2ccc(OC)cc12 [Compound 1029, Quinidine sulfate] | 69 | 
13 | O=C(O)/C=C\C(=O)O.O=C(O)/C=C\C(=O)O.c1ccc2nc(N3CCNCC3)ccc2c1 [Compound 1030, Quipazine dimaleate] | 71 | 
14 | C=C[C@H]1C[N@@]2CC[C@H]1C[C@H]2[C@H](O)c1ccnc2ccc(OC)cc12 [Compound 1031, Quinine sulfate] | 79 | 
15 | N[C@@H](Cn1oc(=O)[nH]c1=O)C(=O)O [Compound 1032, (+)-Quisqualic acid] | 80 | 
16 | CCN(CC)CCCC(C)Nc1c2ccc(Cl)cc2nc2ccc(OC)cc12 (centres unmarked) [Compound 1033, Quinacrine dihydrochloride] | 94 | 
17 | C[C@@H]1C(=O)NC2=Nc3cccc(Cl)c3CN21 [Compound 1034, Quazinone] | 108 | 
18 | CN1CCN(c2ccc3ccccc3n2)CC1.O=C(O)/C=C\C(=O)O.O=C(O)/C=C\C(=O)O [Compound 1036, Quipazine, N-methyl-, dimaleate] |  | Compound effect (percent receptor signaling in presence of test compound, relative lux units relative to the SCH23390 control) [1]: 74%
19 | O=C(O)/C=C\C(=O)O.O=[N+]([O-])c1ccc2nc(N3CCNCC3)ccc2c1 [Compound 1037, Quipazine, 6-nitro-, maleate] |  | Compound effect (percent receptor signaling in presence of test compound, relative lux units relative to the SCH23390 control) [1]: 92%
20 | CCCN1CCC[C@@H]2Cc3nc(N)ncc3C[C@H]21 [Compound 1038, Quinelorane dihydrochloride] |  | Compound effect (percent receptor signaling in presence of test compound, relative lux units relative to the SCH23390 control) [1]: 99%
21 | C[C@]12CCC(=O)C=C1CC[C@@H]1[C@@H]2CC[C@@]2(C)[C@H]1CC[C@]2(O)C(=O)CO [Compound 1040, Cortexolone] | 99 | 
22 | CC(NCCc1ccc(O)cc1)C(O)c1ccc(O)cc1 (centres unmarked) [Compound 1041, Ritodrine hydrochloride] | 119 | 
23 | O=C(c1ccc(OCCN2CCCCC2)cc1)c1c(-c2ccc(O)cc2)sc2cc(O)ccc12 [Compound 1042, Raloxifene hydrochloride] | 103 | 
24 | CC1=C(/C=C/C(C)=C/C=C/C(C)=C/C(=O)O)C(C)(C)CCC1 [Compound 1043, Retinoic acid] | 106 | 
25 | N.N.N.N.N.N.N.N.N.N.N.N.N.N.[Cl-].[Cl-].[Cl-].[Cl-].[Cl-].[Cl-].[O-2].[O-2].[Ru+3].[Ru+3].[Ru+4] [Compound 1044, Ruthenium red] | 61 | 

Row | Structure (SMILES) | Compound effect (percent receptor signaling in presence of test compound, relative lux units relative to the SCH23390 control) | other results
26 | CC1=C(/C=C/C(C)=C/C=C/C(C)=C\C(=O)O)C(C)(C)CCC1 [Compound 1045, 13-cis-retinoic acid] | 72 | 
27 | O=c1c2ccccc2nc2n1CCc1c-2[nH]c2ccccc12 [Compound 1046, Rutaecarpine] | 78 | 
28 | CCCN(CCC)CCc1cccc2c1CC(=O)N2 [Compound 1047, Ropinirole hydrochloride] | 103 | 
29 | CCCCCC(O)c1cccc(OCc2ccc3ccccc3n2)c1 (centres unmarked) [Compound 1049, REV 5901] | 103 | 
30 | CC(=O)c1c(O)c(C)c(O)c(Cc2c(O)c3c(c(C(=O)/C=C/c4ccccc4)c2O)OC(C)(C)C=C3)c1O [Compound 1050, Rottlerin] | 35 | 
31 | COc1ccccc1OCC(O)CN1CCN(CC(=O)Nc2c(C)cccc2C)CC1 (centres unmarked) [Compound 1051, Ranolazine dihydrochloride] | 100 | 
32 | COc1ccc(C2CNC(=O)C2)cc1OC1CCCC1 (centres unmarked) [Compound 1052, Rolipram] | 118 | 
33 | C[C@@H](CN1CCC(Cc2ccccc2)CC1)[C@@H](O)c1ccc(O)cc1.Cl [Compound 1053, Ro 25-6981 hydrochloride] |  | Compound effect (percent receptor signaling in presence of test compound, relative lux units relative to the SCH23390 control) [1]: 70%
34 | CC(C)C[C@H](NP(=O)([O-])O[C@H]1O[C@H](C)[C@@H](O)[C@H](O)[C@@H]1O)C(=O)N[C@@H](Cc1c[nH]c2ccccc12)C(=O)[O-].[Na+].[Na+] [Compound 1054, Phosphoramidon disodium] |  | Compound effect (percent receptor signaling in presence of test compound, relative lux units relative to the SCH23390 control) [1]: 104%
35 | CC[C@H](CO)Nc1nc(NCc2ccccc2)c2ncn(C(C)C)c2n1 [Compound 1055, Roscovitine] | 28 | 
36 | C=C(C)[C@H]1Cc2c(ccc3c2O[C@@H]2COc4cc(OC)c(OC)cc4[C@@H]2C3=O)O1 [Compound 1056, Rotenone] | 41 | 
37 | NC(=O)c1ccc(OCC(O)CN2CC=C(c3ccc(F)cc3)CC2)cc1 (centres unmarked) [Compound 1057, Ro 8-4304] | 115 | 
38 | COC1(C2=NCCN2)COc2ccccc2O1.Cl (centres unmarked) [Compound 1058, RX 821002 hydrochloride] |  | Compound effect (percent receptor signaling in presence of test compound, relative lux units relative to the SCH23390 control) [1]: 121%
39 | NC(=O)c1ncn([C@@H]2O[C@H](CO)[C@@H](O)[C@H]2O)n1 [Compound 1059, Ribavirin] | 119 | 
40 | CNC(=C[N+](=O)[O-])NCCSCc1ccc(CN(C)C)o1 [Compound 1060, Ranitidine hydrochloride] | 106 | 
41 | Cc1nc2sccn2c(=O)c1CCN1CCC(=C(c2ccc(F)cc2)c2ccc(F)cc2)CC1 [Compound 1061, Ritanserin] | 18 | inhibition at 10 µM (read-out: % of the SCH23390 effect (percent inhibition of receptor response relative to the SCH23390 control)): 83%
42 | COC(=O)[C@H]1[C@H]2C[C@H]3c4[nH]c5ccccc5c4CCN3C[C@H]2CC[C@@H]1O [Compound 1062, Rauwolscine hydrochloride] | 87 | 
43 | O=C(c1cc(O)c(O)c([N+](=O)[O-])c1)c1ccccc1F [Compound 1065, Ro 41-0960] | 88 | 
44 | Nc1c(S(=O)(=O)O)cc(Nc2ccc(Nc3nc(Cl)nc(Nc4cccc(S(=O)(=O)O)c4)n3)c(S(=O)(=O)O)c2)c2c1C(=O)c1ccccc1C2=O [Compound 1066, Reactive Blue 2] | 93 | 
45 | CC(C)COC(=O)OCN1C(=O)CN(CCN2CC(=O)N(COC(=O)OCC(C)C)C(=O)C2)CC1=O [Compound 1070, Sobuzoxane] | 96 | 
46 | C1COC(NC(C2CC2)C2CC2)=N1 [Compound 1071, Rilmenidine hemifumarate] | 114 | 
47 | COc1ccc(CCNC[C@H](O)c2ccc(O)cc2)cc1OC [Compound 1072, R(-)-Denopamine] |  | Compound effect (percent receptor signaling in presence of test compound, relative lux units relative to the SCH23390 control) [1]: 107%
48 | CNc1cc(NS(=O)(=O)c2ccc(N)cc2)nc(NC)n1.Cl.Cl [Compound 1073, Ro 04-6790 dihydrochloride] |  | Compound effect (percent receptor signaling in presence of test compound, relative lux units relative to the SCH23390 control) [1]: 135%
49 | COc1cccc(NC(=O)/C=C/c2ccc(Cl)cc2)c1 [Compound 1075, SB-366791] | 105 | 
